From US7528252B2, “Derivatives of triazoly-imidazopyridine useful as ligands of the adenosine A2a receptor and their use as medicaments” (Sigma-Tau Industrie Farmaceutiche Riunite S.p.A., priority 2002, dated 2009)

Columns and labels:
mice [1] = assay: Forced swim test in mice; type: in vivo; settings: 60 minutes before the test; 4 minutes of testing period
Experimental: Mice were dropped individually into glass cylinders (height: 25 cm, internal diameter 10 cm) containing 10 cm water, maintained at 23° C. The immobility time (sec) was measured during 4 minutes of test. A mouse was judged to be immobile when it remained floating in the water, making only the necessary movements to keep its head above water. Test compound ST 1535 was administered orally to mice, 60 minutes before the test.

human A2a receptor = human A2a receptor (Homo sapiens, UniProt P29274); settings: ratio of receptor affinity (selectivity)
Chain of human A2a receptor (P29274 whole entry): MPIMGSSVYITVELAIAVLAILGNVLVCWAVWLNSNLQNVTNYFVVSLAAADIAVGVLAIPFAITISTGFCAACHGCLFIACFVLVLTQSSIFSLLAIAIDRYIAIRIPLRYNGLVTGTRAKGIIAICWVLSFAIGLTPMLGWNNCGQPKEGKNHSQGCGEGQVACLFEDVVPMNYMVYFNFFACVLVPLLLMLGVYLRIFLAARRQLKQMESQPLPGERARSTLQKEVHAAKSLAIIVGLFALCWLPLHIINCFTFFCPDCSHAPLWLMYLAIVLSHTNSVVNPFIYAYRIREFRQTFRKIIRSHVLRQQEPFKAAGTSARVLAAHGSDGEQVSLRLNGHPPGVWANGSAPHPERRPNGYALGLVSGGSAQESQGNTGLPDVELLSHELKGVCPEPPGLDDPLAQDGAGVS

mice [2] = assay: Capacity to antagonise CGS 21680 induced catalepsy; type: in vivo; settings: orally 5 mg/Kg and 10 mg/Kg, 30 minutes prior to CGS 21680 (10 μg/5 μl/mouse i.c.v.); scored 30′, 60′, 120′, 180′
Experimental: 10 CD1 male mice were used per group. For this test, a steel bar, 10 cm long, was placed at a height of 4.5 cm above the support surface. Onto this, were placed the front legs of the animals. The presence of catalepsy was determined by measuring the time (in seconds) the animal remained in the posture placed. Later, this parameter was placed relatively, on a scale of rising values (0 to 5) through which, the degree of catalepsy determined in both control animals and in these subjected to treatment with the substances under test could be proportionately expressed.
For this study, the product ST 1535 was used. Catalepsy was induced in the animals through the intracerebroventricular administration of CGS 21680 (10 μg/5 μl/mouse), 30 minutes prior to testing for the catalepsy score. The test compound was administered orally at a dose of 5 mg/Kg and 10 mg/Kg , 30 minutes prior to treatment with CGS 21680.
The catalepsy score was derived in the manner described following treatment with OGS 21680 after the following times: 30′, 60′ 120′, 180′.

CD1 male mice = assay: Effects on spontaneous motor activity in mice; type: in vivo; settings: for Horizontal activity / Vertical activity: mean ± s.e.
Experimental: For this study, type CD1 male mice (n=8) were used. The effects of the products under study and of the reference compounds were evaluated using an apparatus consisting of a Plexiglas cage (40 cm×40 cm) surrounded by a series of photocells which monitor the movements of the animals placed inside, connected a computerised system, through which, the signals are collected and later elaborated.
Tests were carried out, after endoperitoneal administration of the products. 15 minutes after treatment, the treated animals, alternating with the controls, were placed inside the cage so as to record their spontaneous movements over a total period of 45 minutes broken down into two observation intervals (15′-45′ and 45′-60′, with respect to the time after treatment).
To examine the possible effects of the compounds studied on motor activity, the following parameters were considered: horizontal activity, vertical activity: total distance.
Except for CGS 21680 (reference compound, described in EP 0 277 917, Ciba-Geigy) which was dissolved in 0.9% NaCl, the products studied were solubilised in DMSO and then diluted in Cremofor EL and 0.9% NaCl (final concentrations: DMSO 15%, Cremofor EL 15%, NaCl 0.9%.

[3] = 2.5 mg/kg endoperitoneal, interval 15′-45′ from treatment
[4] = 2.5 mg/kg endoperitoneal, interval 45′-60′ from treatment
[5] = 5 mg/kg endoperitoneal, interval 15′-45′ from treatment
[6] = 5 mg/kg endoperitoneal, interval 45′-60′ from treatment
[7] = 10 mg/kg endoperitoneal, interval 15′-45′ from treatment
[8] = 10 mg/kg endoperitoneal, interval 45′-60′ from treatment
[9] = 20 mg/kg endoperitoneal, interval 15′-45′ from treatment
[10] = 20 mg/kg endoperitoneal, interval 45′-60′ from treatment

Question: How did the “time of immobility, forced swim test (FIG. 5)” value (mice [1]) turn out when CCCCc1nc(N)c2nc(-n3nccn3)n(C)c2n1 [ST 1535, 2-butyl-9-methyl-8-(2H-1,2,3-triazol-2-yl)-9H-purine-6-ylamine] was run?
Answer: Its value is “reduces, in a dose-dependant manner, the time of immobility of the animal”.

Question: What about the KiA1/KiA2a (human A2a receptor) of the same molecule?
Answer: The KiA1/KiA2a was 47.

Question: And the “effect on CGS 21680-induced catalepsy (FIG. 2)” value (mice [2])?
Answer: Its value is “significantly antagonises the appearance of catalepsy at all the observed times”.

Question: And the Horizontal activity (CD1 male mice; [3])?
Answer: Its Horizontal activity is 5386 ± 505.

Question: What about the Vertical activity (CD1 male mice; [3]) of the same molecule?
Answer: Its Vertical activity is 282 ± 79.

Question: What about the Horizontal activity (CD1 male mice; [4]) of the same molecule?
Answer: Its Horizontal activity is 1693 ± 266.

Question: What about the Vertical activity (CD1 male mice; [4]) of the same molecule?
Answer: The Vertical activity was 68 ± 21.

Question: And the Horizontal activity (CD1 male mice; [5])?
Answer: Its Horizontal activity is 7549 ± 508.

Question: What about the Vertical activity (CD1 male mice; [5]) of the same molecule?
Answer: The Vertical activity was 249 ± 41.

Question: And the Horizontal activity (CD1 male mice; [6])?
Answer: Its Horizontal activity is 2353 ± 199.

Question: And the Vertical activity (CD1 male mice; [6])?
Answer: The Vertical activity was 76 ± 16.

Question: And the Horizontal activity (CD1 male mice; [7])?
Answer: Its Horizontal activity is 7434 ± 526.

Question: What about the Vertical activity (CD1 male mice; [7]) of the same molecule?
Answer: Its Vertical activity is 219 ± 64.

Question: What about the Horizontal activity (CD1 male mice; [8]) of the same molecule?
Answer: The Horizontal activity was 2784 ± 345.

Question: What about the Vertical activity (CD1 male mice; [8]) of the same molecule?
Answer: The Vertical activity was 71 ± 32.

Question: And the Horizontal activity (CD1 male mice; [9])?
Answer: The Horizontal activity was 10524 ± 670.

Question: What about the Vertical activity (CD1 male mice; [9]) of the same molecule?
Answer: The Vertical activity was 486 ± 84.

Question: What about the Horizontal activity (CD1 male mice; [10]) of the same molecule?
Answer: Its Horizontal activity is 3321 ± 363.

Question: And the Vertical activity (CD1 male mice; [10])?
Answer: The Vertical activity was 148 ± 36.

Question: What about the “dose from which a significant increase of the spontaneous motor activity in mice is observed” value (CD1 male mice; endoperitoneal) of the same molecule?
Answer: The value was ≥ 5 mg/kg.
